From article PMC10223019, “Preclinical Evaluation of a PSMA-Targeting Homodimer with an Optimized Linker for Imaging of Prostate Cancer” (Molecules, 2023)
Where “and” joins values, the source holds several entries; their conditions need not be identical. Equal values may be shown once. Values belong to the compound of their own block, whether it stands above or below them.

Columns and labels:
[1] = Stability in mouse serum, radio-HPLC; assay type: in vitro ADME; conditions: 24 h post-incubation, 37 °C, indium-111 labeled, intact fraction
Procedure: [^111In]In-22 or [^111In]In-30 (~35 MBq, 70 µL) was mixed with 330 μL of mouse serum and incubated at 37 °C for up to 24 h. After 1, 4, and 24 h incubation, 50 μL of the mouse serum solution was added to a separate vial containing 50 µL of acetonitrile. The sample was centrifuged at 5000× g for 20 min. The supernatant was analyzed by radio-HPLC.

[2] = molecular target: T1, Recombinant human PSMA (rhPSMA) (Homo sapiens, UniProt Q04609); assay: NAALADase assay (competitive inhibition, Amplex Red glutamate readout); assay type: biochemical; conditions: rhPSMA, substrate Ac-Asp-Glu, 1 h 37 °C
T1 construct: purchased R&D systems, Abingdon, UK
Procedure: Recombinant human PSMA (rhPSMA; R&D systems, Abingdon, UK) was diluted in assay buffer (50 mM HEPES, 0.1 M NaCl, pH 7.5) to 0.4 μg/mL. The substrate Ac–Asp–Glu (40 μM) was mixed with the synthesized derivatives and with a reference (PSMA-617) at concentrations ranging from 10^−6 to 10^−13 M in a final volume of 12.5 μL assay buffer. The mixtures were combined with 12.5 μL of the rhPSMA solution and incubated for 1 h at 37 °C in 384-well black polystyrene microplates (ThermoFisher, Bleiswijk, The Netherlands). The amount of glutamate released was measured by incubating with 25 μL of a working solution of the Amplex Red glutamic acid kit (ThermoFisher, Bleiswijk, The Netherlands) at 37 °C for 30 min. Fluorescence was measured with a HIDEX Sense Optical System (Goedereede, The Netherlands) with excitation at 535 nm and emission at 590 nm. Data were normalized and analyzed using a one-site total binding regression with GraphPad Prism v9.0 (GraphPad Software, San Diego, CA, USA).

[3] = Stability in phosphate-buffered saline (PBS), radio-HPLC; assay type: physicochemical; conditions: 24 h post-incubation, 37 °C, indium-111 labeled, intact fraction
Procedure: [^111In]In-22 or [^111In]In-30 (~10 MBq, 20 µL) was mixed with 80 μL of PBS (0.01 M, pH 7.4) and incubated at 37 °C for up to 24 h. A sample of the PBS solution was loaded directly onto the radio-HPLC at 1, 4, and 24 h post-incubation.

[4] = Stability in aqueous solution (LC-MS); assay type: physicochemical; conditions: water, room temperature
Procedure: Dimerization was performed by elongation of 16 with 3-tritylthiopropionic acid, and reaction with 3,6-dichlorotetrazine following a biphasic protocol after cleavage from the solid support. Finally, addition of the chelator DOTA-TCO 26 was performed via the inverse electron-demand Diels–Alder reaction (IEDDA) to yield the dimeric product 27. However, it was noticed that 27 was not stable in aqueous solution, with degradation observed by LC-MS 20 min after incubation in water at room temperature. […] We hypothesized that it could originate from intramolecular interaction between the sulfur and the carboxylic acid group of the aspartic acid. Therefore, we modified the design of the dimer to include a longer spacer between 16 and the tetrazine. We replaced the 3-mercaptopropionic acid with a 6-mercaptohexanoic acid spacer. The resulting compound 30 (Scheme 2), obtained after dimerization and IEDDA reaction, was radiolabeled with In-111 and obtained in high RCY (>99%) and RCP (92.3%). It was stable in aqueous media and in the radiolabeling conditions, but also in PBS and mouse serum (>90% intact [^111In]In-30 at 24 h; Figure S7).

[5] = molecular target: PSMA; parameters: method as in PMID 30097503; conditions: cited from earlier work
[6] = system: PSMA; parameters: method as in PMID 27279903; conditions: PSMA-binding ligand with different chelators; cited from earlier work
[7] = parameters: method as in PMID 33495926; conditions: co-administration of maximum dose of 2000 pmoles PSMA-11; cited from earlier work

T1 sequence (Q04609 whole entry): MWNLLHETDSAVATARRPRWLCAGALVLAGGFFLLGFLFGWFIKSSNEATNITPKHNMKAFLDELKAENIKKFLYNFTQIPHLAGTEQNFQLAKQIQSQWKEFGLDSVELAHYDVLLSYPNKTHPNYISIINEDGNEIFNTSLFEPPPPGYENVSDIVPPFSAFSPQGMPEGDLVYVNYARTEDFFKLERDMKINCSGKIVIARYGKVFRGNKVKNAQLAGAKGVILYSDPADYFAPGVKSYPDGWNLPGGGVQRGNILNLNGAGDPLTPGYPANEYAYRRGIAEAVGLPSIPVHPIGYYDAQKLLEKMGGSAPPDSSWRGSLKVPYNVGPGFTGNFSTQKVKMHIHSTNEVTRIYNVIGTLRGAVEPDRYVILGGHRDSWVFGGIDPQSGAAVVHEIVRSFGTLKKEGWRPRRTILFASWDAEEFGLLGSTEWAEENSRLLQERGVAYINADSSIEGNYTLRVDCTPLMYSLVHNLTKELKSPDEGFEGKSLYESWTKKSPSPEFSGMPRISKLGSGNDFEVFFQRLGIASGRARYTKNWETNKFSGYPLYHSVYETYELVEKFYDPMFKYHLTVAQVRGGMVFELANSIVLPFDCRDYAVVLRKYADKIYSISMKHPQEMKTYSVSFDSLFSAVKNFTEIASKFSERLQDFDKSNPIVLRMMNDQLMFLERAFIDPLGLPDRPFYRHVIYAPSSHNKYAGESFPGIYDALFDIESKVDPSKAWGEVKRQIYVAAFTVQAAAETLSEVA

Stability in Mouse Serum (%) [1]: > 90%
IC50 [2]: 1.05 nM and 1 to 1.6 nM
Stability in PBS (%) [3]: > 90%
Stability in aqueous solution [4]: stable
Compound: CC(C)CC(NC(=O)C(Cc1ccccc1)NC(=O)C(CC(=O)O)NC(=O)CCCCCSC1=NNC(SCCCCCC(=O)NC(CC(=O)O)C(=O)NC(Cc2ccccc2)C(=O)NC(CC(C)C)C(O)CC(=O)NCCCCCC(=O)NCCCCC(NC(=O)NC(CCC(=O)O)C(=O)O)C(=O)O)=C2CCC(OC(=O)NCCCNC(=O)CN3CCN(CC(=O)O)CCN(CC(=O)O)CCN(CC(=O)O)CC3)CCCC12)C(O)CC(=O)NCCCCCC(=O)NCCCCC(NC(=O)NC(CCC(=O)O)C(=O)O)C(=O)O [Compound 30, [EuK(Ahx-Sta-L-Phe-Asp-SHx)]2-Tz-TCO-DOTA]

Compound: N[C@@H](CCC(=O)O)C(=O)[O-].[Na+] [Monosodium glutamate]
Ki [5]: 900 nM

Compound: O=C(O)CCC(NC(=O)NC(CCCCNC(=O)C(Cc1ccc2ccccc2c1)NC(=O)C1CCC(CNC(=O)CCC(C(=O)O)N2CCN(CC(=O)O)CCN(CC(=O)O)CC2)CC1)C(=O)O)C(=O)O (stereo not drawn) [NODAGA-conjugate]
Internalization rate [6]: 48.5 ± 16.4%

Compound: O=C(O)CCc1ccc(O)c(CN(CCN(CC(=O)O)Cc2cc(CCC(=O)NCCCCCC(=O)NCCCC[C@H](NC(=O)N[C@@H](CCC(=O)O)C(=O)O)C(=O)O)ccc2O)CC(=O)O)c1 [PSMA-11]
Decrease in kidney uptake of [177Lu]Lu-PSMA [7]: 99.5%
Decrease in salivary gland uptake of [177Lu]Lu-PSMA [7]: 89.5%
Decrease in tumor-uptake of [177Lu]Lu-PSMA [7]: 44.5%
